What was measured:
[1] = Determination of partition coefficients of phosphines in fluorous biphasic systems (ICP-AAS on phosphorus); type: physicochemical; settings: 0° C., 1:1 mixture (v/v)
Excerpt: For applications in fluorous bi-phasic catalysis and for catalyst recycling by fluorous phase extraction techniques an important feature of the fluorous aryl phosphines and the derived catalytic complexes is the partition coefficient P(P=Cfluorous phase/Corganic phase. C=concentration) in fluorous bi-phasic systems.
11. Determination of Partition Coefficients
The partition coefficients were determinded by dissolving a known amount of phosphine (typically between 11 and 60 μmol) in a fluorous biphasic system either consisting of c-C6F11CF3 (2.000±0.002 mL) and n-pentane, n-octane or toluene (2.006±0.002 mL). The resulting mixture was stirred at 25° C. until all solid had dissolved and equilibrated in a water ice bath (1 h). An aliquot (0.500±0.002 mL) was removed from each layer by syringe. Analysis by ICP-AAS on phosphorus gave the amount of phosphine present, with an accuracy of ±0.3 ppm. A conservative estimate of the experimental error in the partition coefficient is ±1 in the last digit.

[2] = Solubility of dppe and dppe derivatives G{m,x} in perfluorinated and non-fluorinated solvents; type: physicochemical; settings: for solubility at room temperature, FC-72: FC-72: mixture of perfluorinated hexanes
[3] = Hydrogenation of 1-octene under single phase conditions in α,α,α-trifluorotoluene
Protocol: To be able to directly compare the activities of fluorous derivatives H{1,6} and H{1,8} with non-fluorous [P(C6H4-4-SiMe3)3]3RhCl (H{0}) and the conventional Wilkinson catalyst (PPh3)3RhCl, homogeneous hydrogenation of 1-octene were carried out under single phase conditions in the hybrid solvent α,α,α-trifluorotoluene at atmospheric H2 pressures. Highest rates of hydrogen uptake (14.2 mol.L^−1.h^−1) were measured for 1c at relatively high rhodium and olefine concentrations (entry 2, Table 7). Under these conditions a zero-order dependence in [1-octene] was found up to ca 80% conversion resulting in a linear conversion versus time plot. In all other experiments ([Rh]=4.0-8.0 mM, [1-octene]0=1.46 M) rates of hydrogen uptake were lower (<11 mol.L^−1.h^−1) and conversion versus time plots corresponded to a rate law -d[1-octene]/dt=kobs.[1-octene] for >98% conversion allowing to evaluate catalyst activity in terms of the observed first order rate constant kobs. Since for these experiments the rates of dihydrogen uptake were well below the maximum value obtained in entry 2, diffusion limitation of H2 can be excluded. In addition to kobs, turn over frequencies (TOF in mol.mol^−1.h^−1) were derived from the tangent of a 4^thorder polynomal fit to conversion versus time plots at 25% conversion and serve as a measure of catalyst activity independent of any assumed kinetic relationship with substrate.
Catalytic reactions were carried out under single phase conditions in CF3C6H5 at 80° C. under 1 bar of hydrogen pressure. After >90% conversion (monitored by the H2 uptake) volatiles were distilled off and analyzed by GC. Activities (TOF) were determined for 25% conversion.

[4] = [Rh] 4.0 mM, [1-octene] 1.46 M, T = 80° C., p(H2) = 1 bar, α,α,α-trifluorotoluene
[5] = [Rh] 8.0 mM, [1-octene] 2.92 M, T = 80° C., p(H2) = 1 bar, α,α,α-trifluorotoluene

SMILES	Fluorous partition coefficient P = cfluorous phase/corganic phase, toluene/c-C6F11CF3 [1]	Fluorous partition coefficient P = cfluorous phase/corganic phase, n-octane/c-C6F11CF3 [1]	Fluorous partition coefficient P = cfluorous phase/corganic phase, n-pentane/c-C6F11CF3 [1]	solubility at room temperature, THF [2]	solubility at room temperature, FC-72 [2]	other results
C[Si](C)(C)c1ccc(P(c2ccc([Si](C)(C)C)cc2)c2ccc([Si](C)(C)C)cc2)cc1 [D{0}, P(C6H4SiMe3-4)3, reference compound]	0.007	–	–	–	–	–
C[Si](C)(CCC(F)(F)C(F)(F)C(F)(F)C(F)(F)C(F)(F)C(F)(F)F)c1ccc(P(c2ccc([Si](C)(C)CCC(F)(F)C(F)(F)C(F)(F)C(F)(F)C(F)(F)C(F)(F)F)cc2)c2ccc([Si](C)(C)CCC(F)(F)C(F)(F)C(F)(F)C(F)(F)C(F)(F)C(F)(F)F)cc2)cc1 [D{1,6}]	0.13	0.42	0.53	–	–	–
C[Si](C)(CCC(F)(F)C(F)(F)C(F)(F)C(F)(F)C(F)(F)C(F)(F)C(F)(F)C(F)(F)F)c1ccc(P(c2ccc([Si](C)(C)CCC(F)(F)C(F)(F)C(F)(F)C(F)(F)C(F)(F)C(F)(F)C(F)(F)C(F)(F)F)cc2)c2ccc([Si](C)(C)CCC(F)(F)C(F)(F)C(F)(F)C(F)(F)C(F)(F)C(F)(F)C(F)(F)C(F)(F)F)cc2)cc1 [D{1,8}]	1.06	1.4	0.78	–	–	–
C[Si](CCC(F)(F)C(F)(F)C(F)(F)C(F)(F)C(F)(F)C(F)(F)F)(CCC(F)(F)C(F)(F)C(F)(F)C(F)(F)C(F)(F)C(F)(F)F)c1ccc(P(c2ccc([Si](C)(CCC(F)(F)C(F)(F)C(F)(F)C(F)(F)C(F)(F)C(F)(F)F)CCC(F)(F)C(F)(F)C(F)(F)C(F)(F)C(F)(F)C(F)(F)F)cc2)c2ccc([Si](C)(CCC(F)(F)C(F)(F)C(F)(F)C(F)(F)C(F)(F)C(F)(F)F)CCC(F)(F)C(F)(F)C(F)(F)C(F)(F)C(F)(F)C(F)(F)F)cc2)cc1 [D{2,6}, P[C6H4Si(CH2CH2C6F13)2Me-4]3]	3.8	6.6	2.0	–	–	–
C[Si](CCC(F)(F)C(F)(F)C(F)(F)C(F)(F)C(F)(F)C(F)(F)C(F)(F)C(F)(F)F)(CCC(F)(F)C(F)(F)C(F)(F)C(F)(F)C(F)(F)C(F)(F)C(F)(F)C(F)(F)F)c1ccc(P(c2ccc([Si](C)(CCC(F)(F)C(F)(F)C(F)(F)C(F)(F)C(F)(F)C(F)(F)C(F)(F)C(F)(F)F)CCC(F)(F)C(F)(F)C(F)(F)C(F)(F)C(F)(F)C(F)(F)C(F)(F)C(F)(F)F)cc2)c2ccc([Si](C)(CCC(F)(F)C(F)(F)C(F)(F)C(F)(F)C(F)(F)C(F)(F)C(F)(F)C(F)(F)F)CCC(F)(F)C(F)(F)C(F)(F)C(F)(F)C(F)(F)C(F)(F)C(F)(F)C(F)(F)F)cc2)cc1 [D{2,8}]	3.8	11	3.3	–	–	–
FC(F)(F)C(F)(F)C(F)(F)C(F)(F)C(F)(F)C(F)(F)CC[Si](CCC(F)(F)C(F)(F)C(F)(F)C(F)(F)C(F)(F)C(F)(F)F)(CCC(F)(F)C(F)(F)C(F)(F)C(F)(F)C(F)(F)C(F)(F)F)c1ccc(P(c2ccc([Si](CCC(F)(F)C(F)(F)C(F)(F)C(F)(F)C(F)(F)C(F)(F)F)(CCC(F)(F)C(F)(F)C(F)(F)C(F)(F)C(F)(F)C(F)(F)F)CCC(F)(F)C(F)(F)C(F)(F)C(F)(F)C(F)(F)C(F)(F)F)cc2)c2ccc([Si](CCC(F)(F)C(F)(F)C(F)(F)C(F)(F)C(F)(F)C(F)(F)F)(CCC(F)(F)C(F)(F)C(F)(F)C(F)(F)C(F)(F)C(F)(F)F)CCC(F)(F)C(F)(F)C(F)(F)C(F)(F)C(F)(F)C(F)(F)F)cc2)cc1 [D{3,6}]	2.1	3.7	5.3	–	–	–
FC(F)(F)C(F)(F)C(F)(F)C(F)(F)C(F)(F)C(F)(F)C(F)(F)C(F)(F)CC[Si](CCC(F)(F)C(F)(F)C(F)(F)C(F)(F)C(F)(F)C(F)(F)C(F)(F)C(F)(F)F)(CCC(F)(F)C(F)(F)C(F)(F)C(F)(F)C(F)(F)C(F)(F)C(F)(F)C(F)(F)F)c1ccc(P(c2ccc([Si](CCC(F)(F)C(F)(F)C(F)(F)C(F)(F)C(F)(F)C(F)(F)C(F)(F)C(F)(F)F)(CCC(F)(F)C(F)(F)C(F)(F)C(F)(F)C(F)(F)C(F)(F)C(F)(F)C(F)(F)F)CCC(F)(F)C(F)(F)C(F)(F)C(F)(F)C(F)(F)C(F)(F)C(F)(F)C(F)(F)F)cc2)c2ccc([Si](CCC(F)(F)C(F)(F)C(F)(F)C(F)(F)C(F)(F)C(F)(F)C(F)(F)C(F)(F)F)(CCC(F)(F)C(F)(F)C(F)(F)C(F)(F)C(F)(F)C(F)(F)C(F)(F)C(F)(F)F)CCC(F)(F)C(F)(F)C(F)(F)C(F)(F)C(F)(F)C(F)(F)C(F)(F)C(F)(F)F)cc2)cc1 [D{3,8}]	1.0	4.8	7.0	–	–	–
C[Si](C)(C)c1ccc(P(CCP(c2ccc([Si](C)(C)C)cc2)c2ccc([Si](C)(C)C)cc2)c2ccc([Si](C)(C)C)cc2)cc1 [G{0}, (Me3SiC6H4-4)2PCH2CH2P(C6H4SiMe3-4)2, reference compound]	–	–	–	+ (+: >0.1 g/ml)	− (−: <0.01 g/ml)	–
C[Si](C)(CCC(F)(F)C(F)(F)C(F)(F)C(F)(F)C(F)(F)C(F)(F)F)c1ccc(P(CCP(c2ccc([Si](C)(C)CCC(F)(F)C(F)(F)C(F)(F)C(F)(F)C(F)(F)C(F)(F)F)cc2)c2ccc([Si](C)(C)CCC(F)(F)C(F)(F)C(F)(F)C(F)(F)C(F)(F)C(F)(F)F)cc2)c2ccc([Si](C)(C)CCC(F)(F)C(F)(F)C(F)(F)C(F)(F)C(F)(F)C(F)(F)F)cc2)cc1 [G{1,6}]	–	–	–	+ (+: >0.1 g/ml)	− (−: <0.01 g/ml)	solubility at room temperature, toluene [2]: + (+: >0.1 g/ml)
C[Si](C)(CCC(F)(F)C(F)(F)C(F)(F)C(F)(F)C(F)(F)C(F)(F)C(F)(F)C(F)(F)F)c1ccc(P(CCP(c2ccc([Si](C)(C)CCC(F)(F)C(F)(F)C(F)(F)C(F)(F)C(F)(F)C(F)(F)C(F)(F)C(F)(F)F)cc2)c2ccc([Si](C)(C)CCC(F)(F)C(F)(F)C(F)(F)C(F)(F)C(F)(F)C(F)(F)C(F)(F)C(F)(F)F)cc2)c2ccc([Si](C)(C)CCC(F)(F)C(F)(F)C(F)(F)C(F)(F)C(F)(F)C(F)(F)C(F)(F)C(F)(F)F)cc2)cc1 [G{1,8}]	–	–	–	− (−: <0.01 g/ml)	− (−: <0.01 g/ml)	solubility at room temperature, toluene [2]: − (−: <0.01 g/ml)
C[Si](CCC(F)(F)C(F)(F)C(F)(F)C(F)(F)C(F)(F)C(F)(F)F)(CCC(F)(F)C(F)(F)C(F)(F)C(F)(F)C(F)(F)C(F)(F)F)c1ccc(P(CCP(c2ccc([Si](C)(CCC(F)(F)C(F)(F)C(F)(F)C(F)(F)C(F)(F)C(F)(F)F)CCC(F)(F)C(F)(F)C(F)(F)C(F)(F)C(F)(F)C(F)(F)F)cc2)c2ccc([Si](C)(CCC(F)(F)C(F)(F)C(F)(F)C(F)(F)C(F)(F)C(F)(F)F)CCC(F)(F)C(F)(F)C(F)(F)C(F)(F)C(F)(F)C(F)(F)F)cc2)c2ccc([Si](C)(CCC(F)(F)C(F)(F)C(F)(F)C(F)(F)C(F)(F)C(F)(F)F)CCC(F)(F)C(F)(F)C(F)(F)C(F)(F)C(F)(F)C(F)(F)F)cc2)cc1 [G{2,6}]	–	–	–	+ (+: >0.1 g/ml)	+ (+: >0.1 g/ml)	–
C[Si](C)(C)c1ccc([PH](c2ccc([Si](C)(C)C)cc2)(c2ccc([Si](C)(C)C)cc2)[Rh]([Cl])([PH](c2ccc([Si](C)(C)C)cc2)(c2ccc([Si](C)(C)C)cc2)c2ccc([Si](C)(C)C)cc2)[PH](c2ccc([Si](C)(C)C)cc2)(c2ccc([Si](C)(C)C)cc2)c2ccc([Si](C)(C)C)cc2)cc1 [H{0}, [P(C6H4-4-SiMe3)3]3RhCl]	–	–	–	–	–	TOF(25%), turn over frequency at 25% conversion [3, 4]: 1610 h⁻¹; TON (mole of olefin/mole of Rh) [3, 4]: 336; conversion [3, 4]: 92%; kobs (first order rate constant) [3, 4]: 7.5(2) h^−1; TOF(25%), turn over frequency at 25% conversion [3, 5]: 1910 h⁻¹; TON (mole of olefin/mole of Rh) [3, 5]: 361; conversion [3, 5]: 99%; kobs (zero order in olefin up to 80% conversion) [3, 5]: ^eZero order in olefin up to 80% conversion, kobs = 14.2(1) mol.L^−1.h^−1.; activity relative to Wilkinson's catalyst ([3]; derived from Table 7): > 1.5 times; Highest rate of hydrogen uptake ([3]; relatively high rhodium and olefine concentrations (entry 2, Table 7)): 14.2 mol/L/h
